Measured values from ChEMBL document CHEMBL3351315, “Tanzawaic acid derivatives from a marine isolate of Penicillium sp. (SF-6013) with anti-inflammatory and PTP1B inhibitory activities” (Bioorg Med Chem Lett, 2014).
Each block holds one compound with its values, some of them ahead of it. Active and inactive are the calls of the source. No cut-off for these calls is given here.

Key:
[1] = biological target: T1, Tyrosine-protein phosphatase non-receptor type 1 (Homo sapiens) (UniProt P18031); assay: Inhibition of human recombinant PTP1B assessed as reduction in pNPP substrate hydrolysis at 30 uM incubated for 30 mins
T1 sequence (whole entry): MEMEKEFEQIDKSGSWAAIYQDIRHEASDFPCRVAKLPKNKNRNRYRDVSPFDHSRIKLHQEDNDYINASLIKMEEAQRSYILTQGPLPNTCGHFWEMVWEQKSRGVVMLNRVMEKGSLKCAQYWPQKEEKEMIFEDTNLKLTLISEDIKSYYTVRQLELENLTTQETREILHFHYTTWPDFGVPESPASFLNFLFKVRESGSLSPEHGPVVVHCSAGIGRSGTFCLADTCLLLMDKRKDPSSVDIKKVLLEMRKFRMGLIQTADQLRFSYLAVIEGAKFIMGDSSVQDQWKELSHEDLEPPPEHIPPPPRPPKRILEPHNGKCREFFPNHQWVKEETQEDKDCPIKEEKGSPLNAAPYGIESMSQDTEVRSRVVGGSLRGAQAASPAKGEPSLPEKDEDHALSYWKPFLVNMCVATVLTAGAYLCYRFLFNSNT

RAW264.7 [2] = assay: Inhibition of LPS-induced nitric oxide production in mouse RAW264.7 cells pre-treated for 3 hrs before LPS stimulation by ELISA based Griess assay; format: functional, cell-based
BV-2 [3] = assay: Inhibition of LPS-induced nitric oxide production in mouse BV2 cells pre-treated for 3 hrs before LPS stimulation by ELISA based Griess assay; format: functional, cell-based
RAW264.7 [4] = assay: Inhibition of LPS-induced iNOS protein expression in mouse RAW264.7 cells pre-treated for 1 hr before LPS stimulation for 18 hrs by Western blot method; format: functional, cell-based
RAW264.7 [5] = assay: Inhibition of LPS-induced COX2 protein expression in mouse RAW264.7 cells pre-treated for 1 hr before LPS stimulation for 18 hrs by Western blot method; format: functional, cell-based
BV-2 [6] = assay: Inhibition of LPS-induced iNOS protein expression in mouse BV2 cells pre-treated for 1 hr before LPS stimulation for 18 hrs by Western blot method; format: functional, cell-based
BV-2 [7] = assay: Inhibition of LPS-induced COX2 protein expression in mouse BV2 cells pre-treated for 1 hr before LPS stimulation for 18 hrs by Western blot method; format: functional, cell-based
[8] = Effect on beta-actin protein expression in LPS-induced mouse BV2 cells pre-treated for 1 hr before LPS stimulation for 18 hrs by Western blot method; format: ADME, cell-based; details: bv-2, 18 h
RAW264.7 [9] = assay: Effect on beta-actin protein expression in LPS-induced mouse RAW264.7 cells pre-treated for 1 hr before LPS stimulation for 18 hrs by Western blot method; format: ADME, cell-based; details: raw264.7, 18 h
BV-2 [10] = assay: Inhibition of LPS-induced PGE2 production in mouse BV2 cells pre-treated for 3 hrs before LPS stimulation for 24 hrs by ELISA; format: functional, cell-based
RAW264.7 [11] = assay: Inhibition of LPS-induced PGE2 production in mouse RAW264.7 cells pre-treated for 3 hrs before LPS stimulation for 24 hrs by ELISA; format: functional, cell-based
BV-2 [12] = assay: Inhibition of LPS-induced IL-1beta production in mouse BV2 cells pre-treated for 3 hrs before LPS stimulation for 24 hrs by ELISA; format: functional, cell-based
[13] = biological target: T2, Tyrosine-protein phosphatase non-receptor type 1 (Homo sapiens, UniProt P18031); assay: Inhibition of human recombinant PTP1B assessed as reduction in pNPP substrate hydrolysis incubated for 30 mins
T2 sequence (P18031 whole entry): T1 sequence (whole entry)

inhibition [1]: 24.1%
Compound: Cc1ccc2c(c1/C=C/C=C/C(=O)O)[C@H](C)C[C@@](C)(O)C2

IC50 (RAW264.7 [2]): 27 µM
IC50 (BV-2 [3]): 7.1 µM
IC50 (BV-2 [10]): 17.5 µM
IC50 (RAW264.7 [11]): 15.7 µM
IC50 (BV-2 [12]): 21.9 µM
IC50 [13]: 8.2 µM
Compound: Cc1ccc2c(c1/C=C/C=C/C(=O)O)[C@H](C)C[C@H](C)C2
inhibition (RAW264.7 [4]): Dose-dependent effect
inhibition (RAW264.7 [5]): Dose-dependent effect
inhibition (BV-2 [6]): Dose-dependent effect
inhibition (BV-2 [7]): Dose-dependent effect
Activity [8]: Non-toxic
Activity (RAW264.7 [9]): Non-toxic

IC50 (BV-2 [3]): 37.8 µM
inhibition [1]: 27.3%
Compound: Cc1ccc2c(c1/C=C\C=C\C(=O)O)[C@H](C)C[C@@](C)(O)C2

IC50 (BV-2 [3]): 42.5 µM
IC50 [13]: 8.2 µM
Compound: C[C@H]1C[C@@H](C)[C@@H]2[C@@H](/C=C/C=C/C(=O)O)[C@@H](C)C=C[C@H]2C1

inhibition [1]: inactive
Compound: C[C@@H]1C[C@@](C)(O)C[C@@H]2C=C[C@H](C)[C@H](/C=C/C=C/C(=O)O)[C@@H]12
